Test results reported in patent US12517131B2, “Methods for labeling eukaryotic cells from a multicellular organism as well as for treating and/or diagnosing a cancer using modified monosaccharide compounds” (DIAMIDEX, priority 2019, dated 2026).

Legend:
Assay in all cases: Labeling of cancer and non-cancer cells, fluorescence signal ratio
Assay type in all cases: cell-based, human
[1] = system: DOHH-2 (vs Isolated primary B cells); conditions: DOHH-2 (40-48 h) vs Isolated primary B cells; Ara-N3 10 mM; FBS 10%
Description: (§1) The fluorescence Assimilation of Ara-N3 probes was visualized by copper-free click chemistry using sulfo-DBCO-biotin (1 mM), followed by labeling with a mouse anti-biotin Alexa Fluor 488 antibody conjugate (0.62 mg/ml stock, Jackson ImmunoResearch, dilution 1/10). The click reaction was carry-out as following: At 24 h incubation times, the culture mediums were removed, and attached cells were washed twice with PBS. Cells were detached with Tryp-LE, washed twice with PBS, and centrifuged at 13000 g for 2 min. The cellular pellets were resuspended with 10 μL of sulfo-DBCO-biotin and incubated 30 min in the dark, and at 37 C°. Then, cells were washed twice with PBS, centrifuged, and cellular pellets were resuspended with 10 μL of a mouse anti-biotin antibody solution, before to be incubated at room temperature in dark. Thereafter, cells were washed twice with PBS and small cellular suspension spots (5 μL) were put in Polysine® adhesion slides (VWR international S.A.S), in the dark room, until dry (20 min). The spots were fixed with 4% paraformaldehyde during 20 min, in dark and room temperature. Slides were then washed twice with PBS, before recovering with square cover glasses (VWR international S.A.S) using glycerol Mounting Medium (Dako) and stored at 4° C. in dark room.
(§2) The fluorescence acquisition was recorded using Olympus Microscopy IX83 (Olympus Life Science) equipped with a 60×/1.3 […]/1.4 SRI (silicone refractive index) objective, and Hamamatsu oreca flash 4 LT camera with 109 nm/pixel calibrated pixel size. The excitation light was emitted by X-CITE 120LED using the AT180/30X excited filter and signal was monitored using AT535/40m emission filter. Green light exposition time was 600 ms and white light exposition time was determined by DIC methods at […]. The acquisition area size analyzed by the Celisens dimension V1.16 software was different depending on the cell number containing in the spot.
(§3) The images were processed using count and measure unit of the Cellsens dimension V1.16 software. The background noise was deleted as follows: ROI were first defined on the background of the image and the average pixel intensity was calculated. The value thus obtained was subtracted from all pixels of the image. The fluorescence intensity of each cell was determined from a threshold set at a value of 3030. All pixels that have intensity below 3030 were not counted.
(§4) The same experiments as in example 2 with other cancer and corresponding non cancer cells were performed. The culture media were adapted to the tested cells and supplemented by 10% fetal bovine serum (FBS). Ara-N3 probe (10 mM) was added to culture media with FBS concentration (10%). The incubation times corresponded to one doubling time or twice doubling time of the tested cells (see table below).
(§5) The fluorescence signal cancer/non cancer ratios were calculated based on fluorescence intensities obtained with Ara-N3 tested on cancer and corresponding non cancer cells.

[2] = system: SK-BR-7 (vs HME-1); conditions: SK-BR-7 (30 h) vs HME-1 (30 h); Ara-N3 10 mM; FBS 10%; one doubling time
Description: as §1, §2, §3, §4, §5

[3] = system: RS4 (vs Lymphocytes T); conditions: RS4 (35 h) vs Lymphocytes T (24 h); Ara-N3 10 mM; FBS 10%; one doubling time
Description: as §1, §2, §3, §4, §5

[4] = system: A549 (vs Bronchial epithelial cell); conditions: A549 (doubling time 40 h) vs Bronchial epithelial cell (40 h); Ara-N3 10 mM; FBS 10%; test at 2 doubling time
Description: as §1, §2, §3, §4, §5

[5] = system: SU-DHL-4 (vs Isolated primary B cells); conditions: SU-DHL-4 (40 h) vs Isolated primary B cells; Ara-N3 10 mM; FBS 10%
Description: as §1, §2, §3, §4, §5

[6] = system: A375 (vs PIG); conditions: A375 (26 h) vs PIG (26 h); Ara-N3 10 mM; FBS 10%; one doubling time
Description: as §1, §2, §3, §4, §5

[7] = system: THP1 (vs Monocytes/Macrophages); conditions: THP1 (26 h) vs Monocytes/Macrophages (26 h); Ara-N3 10 mM; FBS 10%; one doubling time
Description: as §1, §2, §3, §4, §5

[8] = system: K562 (vs Lymphocytes T); conditions: K562 (24 h) vs Lymphocytes T (24 h); Ara-N3 10 mM; FBS 10%; one doubling time
Description: as §1, §2, §3, §4, §5

[9] = system: BL-2 (vs Isolated primary B cells); conditions: BL-2 (24 h) vs Isolated primary B cells; Ara-N3 10 mM; FBS 10%
Description: as §1, §2, §3, §4, §5

[10] = system: HT29 (vs Colon epithelial cell); conditions: HT29 (doubling time 40 h) vs Colon epithelial cell (40 h); Ara-N3 10 mM; FBS 10%; test at 2 doubling time
Description: as §1, §2, §3, §4, §5

[11] = system: MDA MB175 (vs HME-1); conditions: MDA MB175 (30 h) vs HME-1 (30 h); Ara-N3 10 mM; FBS 10%; one doubling time
Description: as §1, §2, §3, §4, §5

[12] = system: NAMALWA (vs B12-F8); conditions: NAMALWA (20 h) vs B12-F8 (24 h); Ara-N3 10 mM; FBS 10%; one doubling time
Description: as §1, §2, §3, §4, §5

[13] = system: A431 (vs Hacat); conditions: A431 (30 h) vs Hacat (30 h); Ara-N3 10 mM; FBS 10%; one doubling time
Description: as §1, §2, §3, §4, §5

[N-]=[N+]=NC[C@H]1OC(O)[C@@H](O)[C@@H]1O (stereo partly drawn) [Ara-N3, 5-azido-5-deoxy-D-arabinofuranose]
Cancer/Non Cancer Ratio (fluorescence signal) [1]: 7.4
Cancer/Non Cancer Ratio (fluorescence signal) [2]: 2.1
Cancer/Non Cancer Ratio (fluorescence signal) [3]: 1.6
Cancer/Non Cancer Ratio (fluorescence signal) [4]: 7.7
Cancer/Non Cancer Ratio (fluorescence signal) [5]: 2.5
Cancer/Non Cancer Ratio (fluorescence signal) [6]: 3.5
Cancer/Non Cancer Ratio (fluorescence signal) [7]: 19.5
Cancer/Non Cancer Ratio (fluorescence signal) [8]: 1.6
Cancer/Non Cancer Ratio (fluorescence signal) [9]: 2.5
Cancer/Non Cancer Ratio (fluorescence signal) [10]: 13.2
Cancer/Non Cancer Ratio (fluorescence signal) [11]: 2
Cancer/Non Cancer Ratio (fluorescence signal) [12]: 2.3
Cancer/Non Cancer Ratio (fluorescence signal) [13]: 17.5
